Source: patent US20230065745A1, “PIPERIDINE-2,6-DIONE DERIVATIVES WHICH BIND TO CEREBLON, AND METHODS OF USE THEREOF” (Captor Therapeutics S.A., priority 2019, published 2023)

How the values were obtained:
[1] = target: CRBN-DDB1 protein complex (Homo sapiens, UniProt Q96SW2); assay: Fluorescence Polarization (FP) assay, displacement of Cy5-labelled thalidomide; conditions: 25 nM CRBN-DDB1, 5 nM Cy5-labelled thalidomide, read-out: CRBN binding Ki
Description: CRBN-DDB1 protein complex was mixed with Cy5-labelled thalidomide and a compound to be tested (the “test compound”). […] The test solution was added to a 384-well assay plate.
The plate was spun-down (1 min, 1000 rpm, 22° C.) and then shaken using a VibroTurbulator for 10 min at room temperature (20-25° C.), with the frequency set to level 3. The assay plate with protein and the tracer was incubated for 60 min at room temperature (20-25° C.) prior to read-out with a plate reader.
The FP experiment was carried out with various concentrations of the test compounds in order to measure Ki values.

[2] = system: IKZF1; assay: IKZF1 degradation assay, H929 cell line (Western blot densitometry); format: cell-based; conditions: for % of IKZF1 protein reduction, based on densitometry values: 24 h
Description: Cells were seeded on 6- or 12-well plates, and the compounds to be tested were added at the desired concentration range. […] After 6 or 24 h incubation (3TC, 5% CO2), cells were harvested, washed and cell lysates were prepared using RIPA lysis buffer. The amount of protein was determined via BCA assay, and the appropriate quantity was then loaded on the precast gel for the protein separation. After primary and secondary Ab staining, the membranes were washed and signals developed. The densitometry analysis was implemented to obtain the numeric values used later in the protein level evaluation process. […] The treatment with all compounds was carried out for 24 h.

[3] = system: IKZF3; assay: IKZF3 degradation assay, H929 cell line (Western blot densitometry); format: cell-based; conditions: 24 h
Description: (§1) Cells were seeded on 6- or 12-well plates, and the compounds to be tested were added at the desired concentration range. […] After 24 h incubation (3TC, 5% CO2), cells were harvested, washed and cell lysates were prepared using RIPA lysis buffer. The amount of protein was determined via BCA assay, and the appropriate quantity was then loaded on the precast gel for the protein separation. After primary and secondary Ab staining, the membranes were washed and signals developed. The densitometry analysis was implemented to obtain the numeric values used later in the protein level evaluation process.
(§2) The treatment with all compounds was carried out for 24 h.
(§3) Densitometry values are normalized to the loading control ((3-ACTIN) and presented as % of DMSO control, using the following labels: […]

[4] = system: CK1α; assay: CK1α degradation assay, Kelly cell line (Western blot densitometry); format: cell-based; conditions: 24 h
Description: as §1, with “6-well” for “6- or 12-well”, “(37° C.,” for “(3TC,”, “were” for “were harvested,”
as §2, §3

CRBN-DDB1 protein complex, sequence (Q96SW2 whole entry): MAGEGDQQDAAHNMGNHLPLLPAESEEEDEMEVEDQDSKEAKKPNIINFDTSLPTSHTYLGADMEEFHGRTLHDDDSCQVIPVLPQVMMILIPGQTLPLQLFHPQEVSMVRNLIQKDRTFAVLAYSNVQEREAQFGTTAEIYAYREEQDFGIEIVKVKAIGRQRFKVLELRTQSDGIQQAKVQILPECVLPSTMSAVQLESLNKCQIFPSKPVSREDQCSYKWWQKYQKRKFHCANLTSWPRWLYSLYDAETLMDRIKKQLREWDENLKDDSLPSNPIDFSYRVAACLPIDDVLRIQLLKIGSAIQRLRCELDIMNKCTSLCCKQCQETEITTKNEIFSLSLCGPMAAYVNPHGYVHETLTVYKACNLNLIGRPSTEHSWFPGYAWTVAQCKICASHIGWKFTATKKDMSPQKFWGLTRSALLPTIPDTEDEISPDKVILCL
CRBN-DDB1 protein complex, sequence (Q16531 whole entry partner): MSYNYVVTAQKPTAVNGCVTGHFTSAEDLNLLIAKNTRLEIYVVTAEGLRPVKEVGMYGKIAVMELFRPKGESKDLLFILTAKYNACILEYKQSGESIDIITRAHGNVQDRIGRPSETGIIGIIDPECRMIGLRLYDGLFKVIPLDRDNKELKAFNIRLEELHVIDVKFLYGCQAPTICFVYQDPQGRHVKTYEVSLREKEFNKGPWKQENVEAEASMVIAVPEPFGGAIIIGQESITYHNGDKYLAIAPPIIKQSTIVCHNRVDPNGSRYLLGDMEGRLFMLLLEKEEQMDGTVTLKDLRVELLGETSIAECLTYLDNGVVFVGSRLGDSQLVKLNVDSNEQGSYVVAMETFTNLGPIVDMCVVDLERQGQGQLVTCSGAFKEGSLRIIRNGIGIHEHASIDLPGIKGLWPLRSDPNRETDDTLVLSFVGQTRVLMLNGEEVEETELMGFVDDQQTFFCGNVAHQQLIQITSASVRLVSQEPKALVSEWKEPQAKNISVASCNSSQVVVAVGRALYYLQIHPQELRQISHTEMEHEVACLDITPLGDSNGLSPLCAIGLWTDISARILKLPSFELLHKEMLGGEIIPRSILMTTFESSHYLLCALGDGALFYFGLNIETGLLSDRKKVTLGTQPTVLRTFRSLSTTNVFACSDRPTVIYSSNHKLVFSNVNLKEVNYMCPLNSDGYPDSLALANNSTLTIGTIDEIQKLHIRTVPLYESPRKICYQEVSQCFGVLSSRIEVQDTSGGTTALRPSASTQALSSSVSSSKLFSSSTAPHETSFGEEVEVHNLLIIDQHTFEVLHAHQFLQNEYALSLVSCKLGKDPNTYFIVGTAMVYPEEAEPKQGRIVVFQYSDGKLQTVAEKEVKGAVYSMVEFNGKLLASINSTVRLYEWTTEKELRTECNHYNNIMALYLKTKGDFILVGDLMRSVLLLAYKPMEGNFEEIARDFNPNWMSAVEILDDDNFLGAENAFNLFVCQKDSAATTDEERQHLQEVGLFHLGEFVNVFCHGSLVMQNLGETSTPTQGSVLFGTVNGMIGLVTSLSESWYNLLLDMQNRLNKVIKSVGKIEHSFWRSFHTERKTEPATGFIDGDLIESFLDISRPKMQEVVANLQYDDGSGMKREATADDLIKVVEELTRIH

Compound	Ki [1] [µM]	% of IKZF1 protein reduction, based on densitometry values ([2]; 1 μM)	% of IKZF1 protein reduction, based on densitometry values ([2]; 10 μM)	% of IKZF1 protein reduction, IKZF 1 (24 H, 20 μM) [2]	% of IKZF3 protein reduction, based on densitometry values ([3]; 1 μM)	% of IKZF3 protein reduction, based on densitometry values ([3]; 10 μM)	% of CK1α protein reduction, based on densitometry values ([4]; 1 μM)	% of CK1α protein reduction, based on densitometry values ([4]; 10 μM)	% of CK1α protein reduction, based on densitometry values ([4]; 20 μM)	CK1α degradation (in words) [4]
COc1sccc1C(=O)NC1CCC(=O)NC1=O (stereo not shown) [Compound 20, N-(2,6-dioxopiperidin-3-yl)-2-methoxythiophene-3-carboxamide]	< 5	≤25% (≤25% for 0-25% of IKZF1 protein reduction)	≤25% (≤25% for 0-25% of IKZF1 protein reduction)	≤25% (≤25% for 0-25% of IKZF1 protein reduction)	≤25% (≤25% for 0-25% of IKZF3 protein reduction)	≤25% (≤25% for 0-25% of IKZF3 protein reduction)				
Nc1cccc2c1C(=O)N(C1CCC(=O)NC1=O)C2=O (stereo not shown) [Pomalidomide, pomalidomide, reference compound]		≥75% (≥75% for 75-100% of IKZF1 protein reduction)	≥75% (≥75% for 75-100% of IKZF1 protein reduction)	≥75% (≥75% for 75-100% of IKZF1 protein reduction)	≥75% (≥75% for 75-100% of IKZF3 protein reduction)	≥75% (≥75% for 75-100% of IKZF3 protein reduction)	>25% (>25% for 26-74% of CK1α protein reduction)	>25% (>25% for 26-74% of CK1α protein reduction)	>25% (>25% for 26-74% of CK1α protein reduction)	to a lesser degree
COc1cscc1C(=O)NC1CCC(=O)NC1=O (stereo not shown) [Compound 54, N-(2,6-dioxopiperidin-3-yl)-4-methoxythiophene-3-carboxamide]	< 5						>25% (>25% for 26-74% of CK1α protein reduction)	>25% (>25% for 26-74% of CK1α protein reduction)	>25% (>25% for 26-74% of CK1α protein reduction)	
COc1sccc1C(=O)N[C@@H]1CCC(=O)NC1=O [Compound 22, (R)—N-(2,6-dioxopiperidin-3-yl)-2-methoxythiophene-3-carboxamide]	10 to 50			≤25% (≤25% for 0-25% of IKZF1 protein reduction)					>25% (>25% for 26-74% of CK1α protein reduction)	
O=C1CCC(NC(=O)c2sc(Cl)c3cccnc23)C(=O)N1 (stereo not shown) [Compound 106, 5-chloro-N-(2,6-dioxopiperidin-3-yl)thieno[3,4-b]pyridine-7-carboxamide]	< 5	≤25% (≤25% for 0-25% of IKZF1 protein reduction)	≤25% (≤25% for 0-25% of IKZF1 protein reduction)	≤25% (≤25% for 0-25% of IKZF1 protein reduction)	≤25% (≤25% for 0-25% of IKZF3 protein reduction)	≤25% (≤25% for 0-25% of IKZF3 protein reduction)				
Cc1nc2cccc(N)c2c(=O)n1C1CCC(=O)NC1=O (stereo not shown) [CC-122, reference compound]		≥75% (≥75% for 75-100% of IKZF1 protein reduction)	≥75% (≥75% for 75-100% of IKZF1 protein reduction)		≥75% (≥75% for 75-100% of IKZF3 protein reduction)	≥75% (≥75% for 75-100% of IKZF3 protein reduction)	≤25% (≤25% for 0-25% of CK1α protein reduction)	≤25% (≤25% for 0-25% of CK1α protein reduction)	≤25% (≤25% for 0-25% of CK1α protein reduction)	lack of degradation
O=C1CCC(NC(=O)c2scc3cccnc23)C(=O)N1 (stereo not shown) [Compound 107, N-(2,6-dioxopiperidin-3-yl)thieno[3,4-b]pyridine-7-carboxamide]	< 5	≤25% (≤25% for 0-25% of IKZF1 protein reduction)	≤25% (≤25% for 0-25% of IKZF1 protein reduction)		≤25% (≤25% for 0-25% of IKZF3 protein reduction)	≤25% (≤25% for 0-25% of IKZF3 protein reduction)				
COCc1ncc(C(=O)NC2CCC(=O)NC2=O)s1 (stereo not shown) [Compound 111, N-(2,6-dioxopiperidin-3-yl)-2-(methoxymethyl)thiazole-5-carboxamide]	10 to 50	≤25% (≤25% for 0-25% of IKZF1 protein reduction)	≤25% (≤25% for 0-25% of IKZF1 protein reduction)	≤25% (≤25% for 0-25% of IKZF1 protein reduction)	≤25% (≤25% for 0-25% of IKZF3 protein reduction)	≤25% (≤25% for 0-25% of IKZF3 protein reduction)				
COc1ccsc1C(=O)NC1CCC(=O)NC1=O (stereo not shown) [Compound 108, N-(2,6-dioxopiperidin-3-yl)-3-methoxythiophene-2-carboxamide]	< 5	≤25% (≤25% for 0-25% of IKZF1 protein reduction)	≤25% (≤25% for 0-25% of IKZF1 protein reduction)	≤25% (≤25% for 0-25% of IKZF1 protein reduction)	≤25% (≤25% for 0-25% of IKZF3 protein reduction)	≤25% (≤25% for 0-25% of IKZF3 protein reduction)			>25% (>25% for 26-74% of CK1α protein reduction)	
CCCCC(=O)Nc1sc(Cl)cc1C(=O)NC1CCC(=O)NC1=O (stereo not shown) [Compound 3, 5-chloro-N-(2,6-dioxopiperidin-3-yl)-2-pentanamidothiophene-3-carboxamide]	< 5			≤25% (≤25% for 0-25% of IKZF1 protein reduction)						
COc1sccc1C(=O)N[C@H]1CCC(=O)NC1=O [Compound 21, (S)—N-(2,6-dioxopiperidin-3-yl)-2-methoxythiophene-3-carboxamide]	< 5			≤25% (≤25% for 0-25% of IKZF1 protein reduction)					>25% (>25% for 26-74% of CK1α protein reduction)	
O=C1CCC(NC(=O)c2cnc(CNC(=O)OCc3ccccc3)s2)C(=O)N1 (stereo not shown) [Compound 74, benzyl ((5-((2,6-dioxopiperidin-3-yl)carbamoyl)thiazol-2-yl)methyl)carbamate]	10 to 50			≤25% (≤25% for 0-25% of IKZF1 protein reduction)						
